One molecule from patent US20210130790A1, “Infected Cell Cultures” (Merck Patent GmbH, priority 2017, published 2021) can be followed below.

The subject of the assay is Pb-Luc (Plasmodium berghei constitutively expressing luciferase) sporozoite infection of HC-04 3D cultures. The assay is described as follows: Drug activity on Pb-Luc sporozoite infection of HC-04 3D cultures (spheroids), luciferase readout. The class given is cell-based. On the procedure: FIG. 19—Analysis of drug activity in Pb infected-HC-04 spheroids. Dose-response curve of 3D cultures treated with ATQ. Results are expressed as percentage of infection normalized to the non-treated control. Results are represented as the mean of up to two independent experiments.
Initially, a preliminary assay employing reporter lines of Plasmodium berghei, constitutively expressing luciferase (Pb-Luc) or GFP (Pb-GFP), was performed to optimize the range of cell-to-sporozoite ratios and mode of contact. Pb-Luc parasites enable measuring infection by luminescence readings of cell lysates following addition of the luciferin substrate. Pb-GFP parasites enable measuring infection flow cytometry analysis. Such analyses allow measuring the percentage of invaded cells (% GFP-positive cells) and the development of the parasite inside the hepatic cells (GFP intensity). […]
HC-04 3D cultures were infected with Pb-Luc in the optimized conditions described above (cell density of 2.5×10^4 cell/well in a 1:2 ratio). The assessment of drug effect in the infection was performed by incubating the drug at a range of concentrations from 0.01 to 100 nM for 1 hour before incubation with the sporozoites and the readout was performed 48 hours after sporozoites addition, described as incubation regimen (A) in the detailed description of the invention section (FIG. 1). […]

On to `O=C1C(O)=C([C@H]2CC[C@H](c3ccc(Cl)cc3)CC2)C(=O)c2ccccc21` [ATQ, Atovaquone], for which the IC50 (Plasmodium berghei, HC04, 2.5×10^4 cell/well, 1:2 cell-to-sporozoite ratio, drug added 1 hour before sporozoites, readout 48 hours after sporozoite addition (regimen A), read-out: half inhibitory concentration (IC50) for sporozoite infection) is 0.6 nM. Also, the decrease of infection entry (highest concentrations tested (range 0.01 to 100 nM), readout 48 hours, normalized to non-treated control) is reported as “more than 90%”.
